One experiment concerns the target E. coli LpxC (Escherichia coli, UniProt P0A725). The experiment is described as follows: LpxC Binding Assay (Rapid Fire MS assay). The format is biochemical.
In experiment [1] the test system is TLR-4 activity of A. baumannii culture supernatants. In words: TLR4 assay: TLR4 activity of A. baumannii culture supernatants in HEK-Blue-hTLR4 cells. It is filed as cell-based. As to conditions: Acinetobacter baumannii, HEK-Blue hTLR4, read-out: % TLR-4 activity. How it is done:
The TLR4 assay measures activity of diluted filter-sterilized A. baumannii culture supernatants. The assay was performed as described in Lin et al, Mbio, 2012. Briefly, A. baumannii was passaged to mid log-phase in the presence of Forge LpxC inhibitors. Culture supernatants were harvested, filter-sterilized and diluted 1:1000. TLR4 activity of the supernatants was tested using HEK-Blue-hTLR4 cells (Invivogen) that carry NF-kB and AP-1 driven SEAP (secreted embryonic alkaline phosphatase) reporter gene.
Exemplary TLR4 assay data (% TLR-4 activity) for compounds in embodiments of the disclosure.

Chain of E. coli LpxC (P0A725 whole entry): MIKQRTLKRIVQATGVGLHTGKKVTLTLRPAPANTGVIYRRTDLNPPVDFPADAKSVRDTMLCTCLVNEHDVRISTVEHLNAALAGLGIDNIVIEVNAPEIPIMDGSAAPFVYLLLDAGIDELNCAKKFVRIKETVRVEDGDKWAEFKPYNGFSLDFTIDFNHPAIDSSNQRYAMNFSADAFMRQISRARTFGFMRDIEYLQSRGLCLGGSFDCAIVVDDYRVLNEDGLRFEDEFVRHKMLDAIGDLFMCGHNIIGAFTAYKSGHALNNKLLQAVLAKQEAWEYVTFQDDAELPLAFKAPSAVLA

`O=C1CCCN1Cc1ccc(C#Cc2ccc(CC(CNCCF)c3nc[nH]c(=O)c3O)cc2)cc1` (stereo not drawn) [Compound 55, 6-(1-((2-fluoroethyl)amino)-3-(4-((4-((2-oxopyrrolidin-1-yl)methyl)phenyl)ethynyl)phenyl)propan-2-yl)-5-hydroxypyrimidin-4(3H)-one]: the half-inhibitory concentration (IC50) (usually the concentration needed to halve the response being measured) at E. coli LpxC was 10 to 50 nM. For the same molecule, in experiment [1], the activity at 4 µg/mL was greater than 80%, the activity at 8 µg/mL lay within 20 to 50% and the activity at 16 µg/mL lay within 20 to 50%.
On to `O=c1[nH]cnc(C(CNCC(F)F)Cc2ccc(C#Cc3ccc(CN4CCOCC4)cc3)cc2)c1O` (stereo not drawn) [Compound 57, 6-(1-((2,2-difluoroethyl)amino)-3-(4-((4-(morpholinomethyl)phenyl)ethynyl)phenyl)propan-2-yl)-5-hydroxypyrimidin-4(3H)-one], for which the half-inhibitory concentration (IC50) on E. coli LpxC fell in the range of 100 to 1000 nM. For the same molecule, in experiment [1], the activity at 4 µg/mL was greater than 80%, the activity at 8 µg/mL fell in the range of 50 to 80% and the activity at 16 µg/mL lay in the range of 20 to 50%.
On E. coli LpxC, `CO[C@H]1CCN(Cc2ccc(C#Cc3ccc(CC(C(=O)NCC(F)F)c4nc[nH]c(=O)c4O)cc3)cc2)C1` (stereo partly drawn) [Compound 105, N-(2,2-difluoroethyl)-2-(5-hydroxy-6-oxo-1,6-dihydropyrimidin-4-yl)-3-(4-((4-(((S)-3-methoxypyrrolidin-1-yl)methyl)phenyl)ethynyl)phenyl) propanamide] gave an IC50 of 50 to 100 nM.
Consider `CO[C@@H]1CCN(Cc2ccc(C#Cc3ccc(CC(C(=O)NCC(F)F)c4nc[nH]c(=O)c4O)cc3)cc2)C1` (stereo partly drawn) [Compound 106, N-(2,2-difluoroethyl)-2-(5-hydroxy-6-oxo-1,6-dihydropyrimidin-4-yl)-3-(4-((4-(((R)-3-methoxypyrrolidin-1-yl)methyl)phenyl)ethynyl)phenyl) propanamide], for which the IC50 at E. coli LpxC was 100 to 1000 nM. In experiment [1], the activity at 4 µg/mL lay within 50 to 80%, the activity at 8 µg/mL lay in the range of 50 to 80% and the activity at 16 µg/mL was 20 to 50%.
In turn, `COC1CN(Cc2ccc(C#Cc3ccc(CC(C(=O)NCC(F)F)c4nc[nH]c(=O)c4O)cc3)cc2)C1` (stereo not drawn) [Compound 109, N-(2,2-difluoroethyl)-2-(5-hydroxy-6-oxo-1,6-dihydropyrimidin-4-yl)-3-(4-((4-((3-methoxyazetidin-1-yl)methyl)phenyl)ethynyl)phenyl) propanamide] registered a concentration for half-maximal inhibition (IC50) on E. coli LpxC of 10 to 50 nM.
Molecule `COCCc1ccc(C#Cc2ccc(CC(C(=O)NCC(F)F)c3nc[nH]c(=O)c3O)cc2)cc1` (stereo not drawn) [Compound 114, N-(2,2-difluoroethyl)-2-(5-hydroxy-6-oxo-1,6-dihydropyrimidin-4-yl)-3-(4-((4-(2-methoxyethyl)phenyl)ethynyl)phenyl) propanamide] gave an IC50 at E. coli LpxC of 50 to 100 nM.
Still for that read-out and setting: as for `N#CC1CN(Cc2ccc(C#Cc3ccc(CC(C(=O)NCC(F)F)c4nc[nH]c(=O)c4O)cc3)cc2)C1` (stereo not drawn) [Compound 149, 3-(4-((4-((3-cyanoazetidin-1-yl)methyl)phenyl)ethynyl)phenyl)-N-(2,2-difluoroethyl)-2-(5-hydroxy-6-oxo-1,6-dihydropyrimidin-4-yl)propanamide], the figure is less than 10 nM; as for `N#CCC1CCN(Cc2ccc(C#Cc3ccc(CC(C(=O)NCC(F)F)c4nc[nH]c(=O)c4O)cc3)cc2)CC1` (stereo not drawn) [Compound 152, 3-(4-((4-((4-(cyanomethyl)piperidin-1-yl)methyl)phenyl)ethynyl)phenyl)-N-(2,2-difluoroethyl)-2-(5-hydroxy-6-oxo-1,6-dihydropyrimidin-4-yl)propanamide], 100 to 1000 nM.
On E. coli LpxC, `COCCNC(=O)C(Cc1ccc(C#Cc2ccc(CN3CCOCC3)cc2)cc1)c1nc[nH]c(=O)c1O` (stereo not drawn) [Compound 153, 2-(5-hydroxy-6-oxo-1,6-dihydropyrimidin-4-yl)-N-(2-methoxyethyl)-3-(4-((4-(morpholinomethyl)phenyl)ethynyl)phenyl) propanamide] showed an IC50 of 10 to 50 nM. Also, in experiment [1], the activity at 4 µg/mL is greater than 80%, the activity at 8 µg/mL was 50 to 80% and the activity at 16 µg/mL is less than 20%.
With `O=C(NC1CC(F)(F)C1)C(Cc1ccc(C#Cc2ccc(CN3CCOCC3)cc2)cc1)c1nc[nH]c(=O)c1O` (stereo not drawn) [Compound 154, N-(3,3-difluorocyclobutyl)-2-(5-hydroxy-6-oxo-1,6-dihydropyrimidin-4-yl)-3-(4-((4-(morpholinomethyl)phenyl)ethynyl)phenyl) propanamide], the IC50 at E. coli LpxC lay in the range of 50 to 100 nM.
In turn, `N#CC1CN(Cc2ccc(C#Cc3ccc(CC(C(=O)NCCF)c4nc[nH]c(=O)c4O)cc3)cc2)C1` (stereo not drawn) [Compound 165, 3-(4-((4-((3-cyanoazetidin-1-yl)methyl)phenyl)ethynyl)phenyl)-N-(2-fluoroethyl)-2-(5-hydroxy-6-oxo-1,6-dihydropyrimidin-4-yl)propanamide] came in with a 50% inhibitory concentration (IC50) on E. coli LpxC of less than 10 nM.
`O=c1[nH]cnc(C(CNCCF)Cc2ccc(C#Cc3ccc(CO)cc3)cc2)c1O` (stereo not drawn) [Compound 195, 6-(1-((2-fluoroethyl)amino)-3-(4-((4-(hydroxymethyl)phenyl)ethynyl)phenyl)propan-2-yl)-5-hydroxypyrimidin-4(3H)-one] had a 50% inhibitory concentration (IC50) at E. coli LpxC of 100 to 1000 nM. In addition, in experiment [1], the activity at 4 µg/mL fell in the range of 50 to 80%, the activity at 8 µg/mL was less than 20% and the activity at 16 µg/mL was less than 20%.
As to `O=c1[nH]cnc(C(CNCCF)Cc2ccc(C#Cc3ccc(CNC4CCOC4)cc3)cc2)c1O` (stereo not drawn) [Compound 198, 6-(1-((2-fluoroethyl)amino)-3-(4-((4-(((tetrahydrofuran-3-yl)amino)methyl)phenyl)ethynyl)phenyl)propan-2-yl)-5-hydroxypyrimidin-4(3H)-one], the IC50 on E. coli LpxC was 100 to 1000 nM.
Same read-out and setting: for `O=c1[nH]cnc(C(CNCCF)Cc2ccc(C#Cc3ccc(CNC4COC4)cc3)cc2)c1O` (stereo not drawn) [Compound 207, 6-(1-((2-fluoroethyl)amino)-3-(4-((4-((oxetan-3-ylamino)methyl)phenyl)ethynyl)phenyl)propan-2-yl)-5-hydroxypyrimidin-4(3H)-one] the value was 50 to 100 nM; for `N#CC1CN(Cc2ccc(C#Cc3ccc(CC(CNCCF)c4nc[nH]c(=O)c4O)cc3)cc2)C1` (stereo not drawn) [Compound 209, 1-(4-((4-(3-((2-fluoroethyl)amino)-2-(5-hydroxy-6-oxo-1,6-dihydropyrimidin-4-yl)propyl)phenyl)ethynyl)benzyl) azetidine-3-carbonitrile], 10 to 50 nM; for `C[C@@H]1CN(Cc2ccc(C#Cc3ccc(CC(CNCCF)c4nc[nH]c(=O)c4O)cc3)cc2)C[C@@H](C)O1` (stereo partly drawn) [Compound 218, 6-(1-(4-((4-(((2R,6R)-2,6-dimethylmorpholino)methyl)phenyl)ethynyl)phenyl)-3-((2-fluoroethyl)amino)propan-2-yl)-5-hydroxypyrimidin-4(3H)-one], 100 to 1000 nM.
For `O=c1[nH]cnc(CCc2ccc(C#Cc3ccc(CNC4CC(O)C4)cc3)cc2)c1O` (stereo not drawn) [Compound 243, 5-hydroxy-6-(4-((4-(((3-hydroxycyclobutyl)amino)methyl)phenyl)ethynyl)phenethyl)pyrimidin-4(3H)-one], the half-maximal inhibitory concentration (IC50) on E. coli LpxC was in the range of 10 to 50 nM.
Take “N-(2,2-difluoroethyl)- 2-(5-hydroxy-6-oxo- 1,6-dihydropyrimidin- 4-yl)-3-(4-((4- (hydroxymethyl) phenyl)ethynyl)phenyl) propanamide [Compound 108]”: the IC50 on E. coli LpxC lay in the range of 10 to 50 nM.
